Reference: article PMC8430629, “Anti-Cancer Effects of Cyclic Peptide ALOS4 in a Human Melanoma Mouse Model” (International Journal of Molecular Sciences, 2021)
Where a SMILES comes first, the peptide text is derived from it.

Columns and labels:
ICR mice [1] = test: Open field test; format: in vivo
Description: To evaluate the effect of ALOS4 on mouse locomotor activity, we used the open field (OF) behavioral test. This assay consists of an arena (30 × 40 cm) with no grid markings and uses an infrared imaging system. […] Each mouse was placed individually in the center of the arena and evaluated for 6 min. Arena center dwell time versus arena border dwell time, as well as total traveled distance, were recorded.

ICR mice [2] = test: Repeated IV dose toxicity assessment in cancer-free ICR mice
Description: Acute single or repeated doses of ALOS4 at 10, 30, 90, 180, or 360 mg/kg were administered intravenously to uninoculated (nominally cancer-free) ICR mice. Body weight, rectal temperature, and survival were evaluated for 14 days following injections. Mice were also evaluated for locomotory and anxiety-like behaviors (open-field and EPM) on treatment day 14.

ICR mice [3] = test: Plasma biochemistry after single IV dose; format: in vivo; conditions: 24 h, mean, n = 5; for Total Bilirubin: normal range 0.16–0.32; for Creatinine: normal range 0.2–0.4; for Globulin: normal range 1.4–2.0; for Alb: normal range 3.3–4.0; for TP: normal range 4.7–5.8; for Phosphorus: normal range 6.4–11.3; for Calcium: normal range 9.8–10.8; for Urea: normal range 39–62; for Cholesterol: normal range 56–133; for Glucose: normal range 169–282
Description: (§1) ICR mice were treated with single IV injections of ALOS4 (30, 90, or 180 mg/kg) and blood samples were collected at 24 h post-injection to EDTA and serum tubes. Complete blood cell count (CBC) and blood chemistry analyses were performed for saline and ALOS4 treatment groups at a certified animal laboratory (Herzliya Medical Center, Herzliya, Israel).

[4] = Formulation stability, saline vs saline with 0.1% Tween-80; format: physicochemical; conditions: 0.5-5000 pmol/µL, 60 min, room temperature (25 °C), polypropylene tubes, LC-MS, n = 3
Description: (§2) Adhesiveness to inert materials was measured for ALOS4 0.9% NaCl(aq) solution in concentrations of 1, 3 10, 30, or 100 µM and incubated in standard laboratory polypropylene microtubes for 60 min at room temperature. Solutions were transferred to either polypropylene LC vials or borosilicate glass LC vials. Optimal formulation stability of ALOS4 was analyzed in either saline solution (0.9% NaCl) or saline solution containing 0.1% tween 80 (polysorbate; Sigma-Aldrich, Cat#P1754, Darmstadt, Germany) at concentrations of 0.5, 5, 50, 500, or 5000 pmol/µL. Solutions were incubated in standard polypropylene tubes for 60 min at room temperature. Acid/base stability was measured for ALOS4 formulated in saline at a concentration of 10 µM and incubated for 1 or 24 h at 3.4, 4.4, 5.4, 6.4, 7.4, or 9.4 pH at temperatures of 4, 25, or 37 °C. Recovery of ALOS4 following these materials assays was assessed by LC-MS.

ICR mice [5] = test: Complete blood count after single IV dose; format: in vivo; conditions: for RBC / HGB / MCH / MCHC / Hematocrit / MCV / Platelets / WBC: mean, n = 5; for RBC: normal range 7.31–10.03; for HGB: normal range 13.1–16.2; for MCH: normal range 15–18; for MCHC: normal range 33.7–36.4; for Hematocrit: normal range 36.8–48.7; for MCV: normal range 46.0–50.9; for Platelets: normal range 674–1675; for WBC: blood 24 h post-injection, normal range 6.5–24.5
Description: as §1

[6] = Acid/base and temperature stability; format: physicochemical; conditions: 10 µM in saline, pH 3.4, 4.4, 5.4, 6.4, 7.4, 9.4; 4, 25, 37 °C; 1 or 24 h; polypropylene tubes, LC-MS, n = 3
Description: as §2

CC(C)C[C@@H]1NC(=O)[C@H](CO)NC(=O)CNC(=O)[C@H](C)NC(=O)[C@H](CO)NC(=O)[C@H](CO)NC(=O)[C@@H](N)CSSC[C@@H](C(=O)O)NC(=O)[C@H](Cc2ccccc2)NC1=O [ALOS4, H-cycl(Cys-Ser-Ser-Ala-Gly-Ser-Leu-Phe-Cys)-OH] (HELM PEPTIDE1{C.S.S.A.G.S.L.F.C}$PEPTIDE1,PEPTIDE1,1:R3-9:R3$$$V2.0)
total traveled distance, open field (ICR mice [1]; IV acute single dose 180 mg/kg, n = 5, Bonferroni p = 0.0329): only an exception for total traveled distance
locomotor activity, open field (ICR mice [1]; IV acute single dose 30, 90, 180 mg/kg, n = 5, central arena dwell time): did not affect locomotor activity in general
weight-gain (ICR mice [2]; IV every other day over 21 days (ten doses), 10, 30, 90, 180, 360 mg/kg, n = 5, vs control): no alterations in weight-gain
body temperature (ICR mice [2]; IV every other day over 21 days, 10-360 mg/kg, rectal, 30 min after injection, n = 5): no alterations
necropsy assessment for organ damage (ICR mice [2]; histology of liver, spleen, kidney, lungs, brain, repeated IV 10-360 mg/kg): did not reveal any overt signs of tissue damage or inflammation
21-day survival (ICR mice [2]; maximum tested repeated IV dose 360 mg/kg, n = 5): 100%
clinical signs (ICR mice [2]; repeated IV 10-360 mg/kg): No adverse overt clinical signs were observed
Total Bilirubin (ICR mice [3]; single IV 30 mg/kg): 0.11 ± 0.02 mg/dL
Creatinine (ICR mice [3]; single IV 30 mg/kg): 0.26 ± 0.014 mg/dL
Globulin (ICR mice [3]; single IV 30 mg/kg): 1.87 ± 0.07 g/dL
Alb (ICR mice [3]; single IV 30 mg/kg): 4.3 ± 0.14 g/dL
TP (ICR mice [3]; single IV 30 mg/kg): 6.17 ± 0.18 g/dL
Phosphorus (ICR mice [3]; single IV 30 mg/kg): 8.6 ± 0.56 mg/dL
Calcium (ICR mice [3]; single IV 30 mg/kg): 10.29 ± 0.11 mg/dL
Urea (ICR mice [3]; single IV 30 mg/kg): 46.08 ± 1.7 mg/dL
Cholesterol (ICR mice [3]; single IV 30 mg/kg): 108.2 ± 9.5 mg/dL
Glucose (ICR mice [3]; single IV 30 mg/kg): 169.8 ± 6.9 mg/dL
Total Bilirubin (ICR mice [3]; single IV 90 mg/kg): 0.14 ± 0.02 mg/dL
Creatinine (ICR mice [3]; single IV 90 mg/kg): 0.25 ± 0.06 mg/dL
Globulin (ICR mice [3]; single IV 90 mg/kg): 2.02 ± 0.07 g/dL
Alb (ICR mice [3]; single IV 90 mg/kg): 4.3 ± 0.06 g/dL
TP (ICR mice [3]; single IV 90 mg/kg): 6.32 ± 0.13 g/dL
Phosphorus (ICR mice [3]; single IV 90 mg/kg): 9.53 ± 0.4 mg/dL
Calcium (ICR mice [3]; single IV 90 mg/kg): 10.38 ± 0.29 mg/dL
Urea (ICR mice [3]; single IV 90 mg/kg): 48.23 ± 3.2 mg/dL
Cholesterol (ICR mice [3]; single IV 90 mg/kg): 142.25 ± 13.7 mg/dL
Glucose (ICR mice [3]; single IV 90 mg/kg): 170.75 ± 10.7 mg/dL
Total Bilirubin (ICR mice [3]; single IV 180 mg/kg): 0.11 ± 0.03 mg/dL
Creatinine (ICR mice [3]; single IV 180 mg/kg): 0.27 ± 0.02 mg/dL
Globulin (ICR mice [3]; single IV 180 mg/kg): 1.59 ± 0.4 g/dL
Alb (ICR mice [3]; single IV 180 mg/kg): 4.36 ± 0.024 g/dL
TP (ICR mice [3]; single IV 180 mg/kg): 6.28 ± 0.09 g/dL
Phosphorus (ICR mice [3]; single IV 180 mg/kg): 8.44 ± 0.75 mg/dL
Calcium (ICR mice [3]; single IV 180 mg/kg): 10.42 ± 0.1 mg/dL
Urea (ICR mice [3]; single IV 180 mg/kg): 46.02 ± 3.9 mg/dL
Cholesterol (ICR mice [3]; single IV 180 mg/kg): 141.8 ± 9.1 mg/dL
Glucose (ICR mice [3]; single IV 180 mg/kg): 183.2 ± 14.3 mg/dL
reduction of peptide stability in saline containing 0.1% Tween-80 vs 0.9% NaCl only [4]: 1.2 fold
decrease in WBC count (ICR mice [5]; ICR mice, single IV 180 mg/kg, 24 h): 40%
RBC (ICR mice [5]; single IV 30 mg/kg, 24 h): 9.16 ± 0.3 10^6/µL
HGB (ICR mice [5]; single IV 30 mg/kg, 24 h): 14.3 ± 0.6 g/dL
MCH (ICR mice [5]; single IV 30 mg/kg, 24 h): 15.6 ± 0.2 pg
MCHC (ICR mice [5]; single IV 30 mg/kg, 24 h): 32.54 ± 0.23 g/dL
Hematocrit (ICR mice [5]; single IV 30 mg/kg, 24 h): 43.96 ± 1.9%
MCV (ICR mice [5]; single IV 30 mg/kg, 24 h): 47.96 ± 0.6 fL
Platelets (ICR mice [5]; single IV 30 mg/kg, 24 h): 582.4 ± 132 10^3/µL
WBC (ICR mice [5]; single IV 30 mg/kg): 4.51 ± 1.3 10^3/µL
RBC (ICR mice [5]; single IV 90 mg/kg, 24 h): 9.78 ± 0.3 10^6/µL
HGB (ICR mice [5]; single IV 90 mg/kg, 24 h): 15.42 ± 0.5 g/dL
MCH (ICR mice [5]; single IV 90 mg/kg, 24 h): 15.76 ± 0.15 pg
MCHC (ICR mice [5]; single IV 90 mg/kg, 24 h): 32.2 ± 0.4 g/dL
Hematocrit (ICR mice [5]; single IV 90 mg/kg, 24 h): 47.88 ± 1.1%
MCV (ICR mice [5]; single IV 90 mg/kg, 24 h): 48.96 ± 0.24 fL
Platelets (ICR mice [5]; single IV 90 mg/kg, 24 h): 770.2 ± 189 10^3/µL
WBC (ICR mice [5]; single IV 90 mg/kg): 6.07 ± 1.2 10^3/µL
RBC (ICR mice [5]; single IV 180 mg/kg, 24 h): 8.02 ± 0.6 10^6/µL
HGB (ICR mice [5]; single IV 180 mg/kg, 24 h): 13.2 ± 1.04 g/dL
MCH (ICR mice [5]; single IV 180 mg/kg, 24 h): 16.42 ± 0.2 pg
MCHC (ICR mice [5]; single IV 180 mg/kg, 24 h): 32.88 ± 0.4 g/dL
Hematocrit (ICR mice [5]; single IV 180 mg/kg, 24 h): 40.12 ± 3.15%
MCV (ICR mice [5]; single IV 180 mg/kg, 24 h): 49.96 ± 0.32 fL
Platelets (ICR mice [5]; single IV 180 mg/kg, 24 h): 661.8 ± 160.5 10^3/µL
WBC (ICR mice [5]; single IV 180 mg/kg): 3.2 ± 0.06 10^3/µL
stability (recoverability) [6]: 90–100%
